Laboratory results: patent publication US12581252B2, “Substituted pyrrolo[3,4-b]pyridines as PI3K-α inhibitors” (Relay Therapeutics, Inc., priority 2020, dated 2026)

Tests used:
H1047R PIK3CA enzyme = H1047R PIK3CA enzyme (Homo sapiens, UniProt P42336, H1047R); assay: ADP-Glo Biochemical PIK3CA Kinase Assay
cells = settings: Homo sapiens, MCF-10A, read-out: MCF10A IC50

H1047R PIK3CA enzyme, sequence (P42336 whole entry H1047R): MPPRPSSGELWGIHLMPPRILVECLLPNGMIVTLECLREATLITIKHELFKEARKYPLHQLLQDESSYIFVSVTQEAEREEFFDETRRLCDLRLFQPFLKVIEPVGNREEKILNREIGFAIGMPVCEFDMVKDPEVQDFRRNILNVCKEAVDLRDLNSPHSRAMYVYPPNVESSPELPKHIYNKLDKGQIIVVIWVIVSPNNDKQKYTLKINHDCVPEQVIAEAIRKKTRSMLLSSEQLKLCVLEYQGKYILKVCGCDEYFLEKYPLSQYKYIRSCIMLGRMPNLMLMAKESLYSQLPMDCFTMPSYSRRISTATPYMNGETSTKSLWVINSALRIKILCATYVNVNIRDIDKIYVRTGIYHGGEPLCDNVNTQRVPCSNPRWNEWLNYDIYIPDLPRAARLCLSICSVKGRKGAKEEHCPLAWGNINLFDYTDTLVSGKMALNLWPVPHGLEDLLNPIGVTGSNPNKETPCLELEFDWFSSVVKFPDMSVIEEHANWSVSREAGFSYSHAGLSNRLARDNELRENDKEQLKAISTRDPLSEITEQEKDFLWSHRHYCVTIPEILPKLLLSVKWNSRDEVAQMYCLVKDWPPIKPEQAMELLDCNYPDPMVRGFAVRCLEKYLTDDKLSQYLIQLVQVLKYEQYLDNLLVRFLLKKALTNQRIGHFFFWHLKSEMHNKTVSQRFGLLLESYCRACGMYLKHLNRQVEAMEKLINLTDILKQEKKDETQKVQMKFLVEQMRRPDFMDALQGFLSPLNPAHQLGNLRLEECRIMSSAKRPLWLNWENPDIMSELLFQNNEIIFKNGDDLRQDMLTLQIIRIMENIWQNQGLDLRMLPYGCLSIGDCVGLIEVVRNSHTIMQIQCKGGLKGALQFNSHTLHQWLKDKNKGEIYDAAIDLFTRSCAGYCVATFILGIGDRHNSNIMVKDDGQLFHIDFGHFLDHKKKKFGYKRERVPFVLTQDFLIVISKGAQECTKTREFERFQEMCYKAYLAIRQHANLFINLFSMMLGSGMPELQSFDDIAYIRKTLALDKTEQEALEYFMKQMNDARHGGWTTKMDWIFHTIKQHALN
H1047R PIK3CA enzyme, sequence (P27986 whole entry partner): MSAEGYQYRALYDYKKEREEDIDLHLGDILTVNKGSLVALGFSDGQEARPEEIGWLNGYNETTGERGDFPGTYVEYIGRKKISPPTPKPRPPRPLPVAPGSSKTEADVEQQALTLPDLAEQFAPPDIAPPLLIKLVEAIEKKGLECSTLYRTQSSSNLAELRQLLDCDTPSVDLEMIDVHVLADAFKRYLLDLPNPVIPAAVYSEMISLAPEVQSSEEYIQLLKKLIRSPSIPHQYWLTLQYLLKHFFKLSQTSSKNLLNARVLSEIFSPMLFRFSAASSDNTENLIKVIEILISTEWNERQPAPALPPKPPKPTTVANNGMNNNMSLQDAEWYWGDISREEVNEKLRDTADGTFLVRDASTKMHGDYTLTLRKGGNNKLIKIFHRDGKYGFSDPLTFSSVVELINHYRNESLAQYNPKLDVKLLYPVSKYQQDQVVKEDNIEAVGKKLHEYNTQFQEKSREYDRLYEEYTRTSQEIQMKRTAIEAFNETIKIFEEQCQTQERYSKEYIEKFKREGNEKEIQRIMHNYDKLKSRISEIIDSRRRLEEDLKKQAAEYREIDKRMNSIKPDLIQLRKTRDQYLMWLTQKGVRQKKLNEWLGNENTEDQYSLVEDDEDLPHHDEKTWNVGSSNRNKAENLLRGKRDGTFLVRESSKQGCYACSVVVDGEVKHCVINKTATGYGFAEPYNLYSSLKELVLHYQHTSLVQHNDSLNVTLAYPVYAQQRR

| SMILES | IC50 (H1047R PIK3CA enzyme) [µM] | IC50 (cells) [µM] |
| --- | --- | --- |
| O=C1NC(c2cc(F)ccc2Cl)c2c(NC(=O)N3CC(O)(C(F)(F)F)c4ccccc43)cc(Cl)cc21 (mixture of isomers) [Compound I-2483] | ≤ 0.1 | < 1 |
| Cn1nncc1-c1cc(NC(=O)c2cc(F)cc(C(F)(F)F)c2)c2c(c1)C(=O)NC2c1cc(F)ccc1Cl (stereo not drawn) [Compound I-1030] | ≤ 0.1 | < 1 |
| Cn1ncnc1Nc1cc(NC(=O)c2cc(F)cc(C(F)(F)F)c2)c2c(c1)C(=O)NC2c1cc(F)ccc1Cl (stereo not drawn) [Compound I-974] | ≤ 0.1 | < 1 |
| N#Cc1cc(NC(=O)N2C[C@@](O)(C(F)(F)F)c3cc(F)ccc32)c2c(c1)C(=O)N[C@@H]2c1cc(F)ccc1Cl (single isomer, unassigned) [Compound I-2560] | ≤ 0.1 | < 1 |
| O=C(Nc1cc(-c2cc3cnccc3[nH]2)cc2c1C(c1cc(F)ccc1Cl)NC2=O)c1cc(F)cc(C(F)(F)F)c1 (stereo not drawn) [Compound I-949] | ≤ 0.1 | 1 to 5 |
| Cn1cnnc1Nc1cc(NC(=O)c2cc(F)cc(C(F)(F)F)c2)c2c(c1)C(=O)NC2c1cc(F)ccc1Cl (stereo not drawn) [Compound I-1083] | ≤ 0.1 | 1 to 5 |
| O=C(Nc1cc(NC2=NC[C@@H](C(F)(F)F)O2)cc2c1[C@H](c1cc(F)ccc1Cl)NC2=O)c1cc(F)cc(C(F)(F)F)c1 (single isomer, unassigned) [Compound I-2324] | ≤ 0.1 | < 1 |
| Cc1[nH]ncc1Nc1cc(NC(=O)c2cc(F)cc(C(F)(F)F)c2)c2c(c1)C(=O)NC2c1cc(F)ccc1Cl (stereo not drawn) [Compound I-1017] | ≤ 0.1 | < 1 |
| C[S+]([O-])Cc1cc(NC(=O)c2cc(F)cc(C(F)(F)F)c2)c2c(c1)C(=O)NC2c1cc(F)ccc1Cl (stereo not drawn) [Compound I-962] | ≤ 0.1 | < 1 |
| N#Cc1c(-c2cc(NC(=O)c3cc(F)cc(C(F)(F)F)c3)c3c(c2)C(=O)N[C@H]3c2cc(F)ccc2Cl)ccc2ncnn12 (single isomer, unassigned) [Compound I-1648] |  | < 1 |
| N#Cc1c(-c2cc(NC(=O)c3cc(F)cc(C(F)(F)F)c3)c3c(c2)C(=O)N[C@@H]3c2cc(F)ccc2Cl)ccc2ncnn12 (single isomer, unassigned) [Compound I-1647] |  | 1 to 5 |
| O=C(Nc1cc(-c2ccc3ncnn3c2)cc2c1[C@H](c1cc(F)ccc1Cl)NC2=O)c1ccc(F)c(OC(F)(F)F)c1 (stereo in doubt) [Compound I-1107] | 0.1 to 0.5 |  |
| O=C1N[C@H](c2cc(F)ccc2Cl)c2c(NC(=O)N3C[C@@H](O)c4ccc(F)cc43)cccc21 (stereo in doubt) [Compound I-2173] | 1 to 10 |  |
| O=C(Nc1cccc2c1C(C1CCNCC1)NC2=O)c1cc(F)cc(C(F)(F)F)c1 (racemic) [Compound I-1770] | 1 to 10 |  |
| O=C1NC(c2ccccc2)c2c(NC(=O)c3csc4ccccc34)cccc21 (stereo not drawn) [Compound I-8] | 0.1 to 0.5 |  |
| CC(C)(O)Cc1cc(NC(=O)c2cc(F)cc(C(F)(F)F)c2)c2c(c1)C(=O)NC2c1cc(F)ccc1Cl (stereo not drawn) [Compound I-437] | ≤ 0.1 |  |
| O=C(Nc1cc(Br)cc2c1C(c1ccccc1C(F)F)NC2=O)c1cc(F)cc(C(F)(F)F)c1 (stereo not drawn) [Compound I-792] | ≤ 0.1 |  |
| Cc1ccccc1C1NC(=O)c2cccc(NC(=O)c3csc4cccc(F)c34)c21 (stereo not drawn) [Compound I-67] | 1 to 10 |  |
| O=C(Nc1cccc2c1C(c1cc(F)ccc1Br)NC2=O)c1cc(F)cc(C(F)(F)F)c1 (stereo not drawn) [Compound I-628] | ≤ 0.1 |  |
| NCCOc1cc(NC(=O)c2cc(F)cc(C(F)(F)F)c2)c2c(c1)C(=O)NC2c1cc(F)ccc1Cl (stereo not drawn) [Compound I-1298] | 0.1 to 0.5 |  |
| O=C(Nc1cccc2c1C(CC1CCCC1)NC2=O)c1cc(F)cc(C(F)(F)F)c1 (stereo not drawn) [Compound I-2109] | 1 to 10 |  |

| SMILES | IC50 (H1047R PIK3CA enzyme) [µM] | IC50 (cells) [µM] |
| --- | --- | --- |
| Cc1cc2nccnc2cc1-c1cc(NC(=O)c2cc(F)cc(C(F)(F)F)c2)c2c(c1)C(=O)NC2c1cc(F)ccc1Cl (stereo not drawn) [Compound I-975] | 0.1 to 0.5 |  |
| N#Cc1c(-c2cc(NC(=O)c3cc(F)cc(Cl)c3)c3c(c2)C(=O)N[C@H]3c2cc(F)ccc2Cl)ccc2ncnn12 [Compound I-2063] | 0.5 to 1 |  |
| CC(=O)Nc1cc(NC(=O)N2C[C@@](O)(C(F)(F)F)c3cc(F)ccc32)c2c(c1)C(=O)N[C@@H]2c1cc(F)ccc1Cl (single isomer, unassigned) [Compound I-2575] | 1 to 10 |  |
| O=C1NC(c2cc(F)ccc2Cl)c2c(NC(=O)[C@H]3C[C@@H](C(F)(F)F)C3)cc(Br)cc21 (stereo partly drawn) [Compound I-1989] | 1 to 10 |  |
| O=C(Nc1cc(Cl)nc2c1[C@H](c1cc(F)ccc1Cl)NC2=O)c1cc(F)cc(C(F)(F)F)c1 [Compound I-616] | 0.1 to 0.5 |  |
| O=C1N[C@H](c2cc(F)ccc2Cl)c2c(NC(=O)N3CCC[C@@](O)(C(F)(F)F)C3)cccc21 (single isomer, unassigned) [Compound I-2113] | 10 to 100 |  |
| CCc1cc(F)cc(C(=O)Nc2cc(Br)cc3c2C(c2ccccc2C)NC3=O)c1 (stereo not drawn) [Compound I-608] | 0.5 to 1 |  |
| Cc1ccccc1C1NC(=O)c2cc(C3(O)CCC3)cc(NC(=O)c3nsc4ccccc34)c21 (stereo not drawn) [Compound I-419] | ≤ 0.1 |  |
| O=C(Nc1cc(-c2ccc3nnnn3c2)cc2c1C(c1cc(F)ccc1Cl)NC2=O)c1cc(F)cc(C(F)(F)F)c1 (stereo not drawn) [Compound I-1374] | ≤ 0.1 |  |
| Cc1ccccc1C1NC(=O)c2nccc(NC(=O)N3CCc4ccc(F)cc43)c21 (stereo not drawn) [Compound I-177] | 0.5 to 1 |  |
| CC(C)(C(=O)O)c1cc(NC(=O)c2cc(F)cc(C(F)(F)F)c2)c2c(c1)C(=O)NC2c1cc(F)ccc1Cl (stereo not drawn) [Compound I-427] | 0.1 to 0.5 |  |
| O=C(Nc1cc(-c2cn[nH]c2)cc2c1[C@@H](c1cc(F)ccc1Cl)NC2=O)c1cc(F)cc(C(F)(F)F)c1 [Compound I-1079] | ≤ 0.1 |  |
| O=C(CCC(F)F)Nc1cc(NC(=O)c2cc(F)cc(C(F)(F)F)c2)c2c(c1)C(=O)NC2c1cc(F)ccc1Cl (stereo not drawn) [Compound I-360] | ≤ 0.1 |  |
| Cc1ccccc1C1NC(=O)c2cccc(NC(=O)c3cc(F)cc(C(F)F)c3)c21 (stereo not drawn) [Compound I-112] | 1 to 10 |  |
| O=C(Nc1cc(Br)cc2c1[C@@H](c1cc(F)cc(F)c1Cl)NC2=O)c1cc(F)cc(C(F)(F)F)c1 [Compound I-806] | 0.5 to 1 |  |
| O=C(Nc1cc(N2CCC(F)(F)CC2)nc2c1C(c1cc(F)ccc1Cl)NC2=O)c1cc(F)cc(C(F)(F)F)c1 (stereo not drawn) [Compound I-539] | ≤ 0.1 |  |
| O=C1N[C@@H](c2cc(F)ccc2Cl)c2c(NC(=O)N3C[C@@H](O)c4cc(F)ccc43)cc(-c3ccc(=O)n(C(F)F)c3)cc21 (single isomer, unassigned) [Compound I-2451] | 1 to 10 |  |
| O=C1NC(c2cc(F)ccc2Cl)c2c(NC(=O)C3CCC(O)CC3)cc(-c3ccc4ncnn4c3)cc21 (stereo not drawn) [Compound I-1690] | 10 to 100 |  |
| NCc1cc(-c2ccc3ncnn3c2)cc2c1C(c1cc(F)ccc1Cl)NC2=O (stereo not drawn) [Compound I-1950] | 10 to 100 |  |
| Cc1ccccc1C1NC(=O)c2cccc(NC(=O)c3cc(Br)sn3)c21 (stereo not drawn) [Compound I-453] | 10 to 100 |  |

More lines, main results first:

| IC50 (H1047R PIK3CA enzyme) [µM] | SMILES | IC50 (cells) [µM] |
| --- | --- | --- |
| 10 to 100 | CC(C)c1cc(N)n(C(=O)Nc2cccc3c2C(c2cc(F)ccc2Cl)NC3=O)n1 (stereo not drawn) [Compound I-2465] |  |
| 10 to 100 | O=C(Nc1cccc2c1[C@H]([C@H]1CCCCCN1)NC2=O)c1cc(F)cc(C(F)(F)F)c1 (racemic) [Compound I-2318] |  |
| 10 to 100 | O=C(Nc1cc(-c2ccc3ncnn3c2)cc2c1[C@@H](c1cc(F)cc(F)c1Cl)NC2=O)c1cc(F)cc(C(F)(F)F)c1 (stereo in doubt) [Compound I-1063] |  |
| 1 to 10 | O=C(Nc1cc(Br)cc2c1C(c1cc(F)ccc1Cl)NC2=O)c1cc(F)ccc1OC(F)(F)F (stereo not drawn) [Compound I-788] |  |
| ≤ 0.1 | O=C(Nc1cc(-c2ccn3nccc3n2)cc2c1C(c1cc(F)ccc1Cl)NC2=O)c1cc(F)cc(C(F)(F)F)c1 (stereo not drawn) [Compound I-1763] |  |
| 10 to 100 | O=C1N[C@H](c2cc(F)ccc2Cl)c2c(NC(=O)N3C[C@](O)(C(F)(F)F)c4cc(F)ccc43)cc(C3COC3)cc21 (single isomer, unassigned) [Compound I-2653] |  |
| ≤ 0.1 | O=C(Nc1cc(-c2ccn3ncnc3n2)cc2c1C(c1cc(F)ccc1Cl)NC2=O)c1cc(F)cc(C(F)(F)F)c1 (stereo not drawn) [Compound I-1677] |  |
| 10 to 100 | O=C1NC(c2cc(F)ccc2Cl)c2c(NC(=O)N3CCc4ccc(=O)[nH]c43)cc(Br)cc21 (stereo not drawn) [Compound I-1429] |  |
| 10 to 100 | O=C1NC(c2cc(F)ccc2Cl)c2c(NC(=O)C3CCNCC3)cc(-c3ccc4ncnn4c3)cc21 (stereo not drawn) [Compound I-1751] |  |
| ≤ 0.1 | Cn1cc(C(=O)Nc2cc(NC(=O)c3cc(F)cc(C(F)(F)F)c3)c3c(c2)C(=O)NC3c2cc(F)ccc2Cl)cn1 (stereo not drawn) [Compound I-336] |  |
| 1 to 10 | CC(C)(O)c1cc(NC(=O)N2C[C@H](O)c3ccccc32)c2c(c1)C(=O)N[C@@H]2c1cc(F)ccc1Cl (single isomer, unassigned) [Compound I-2121] |  |
| 1 to 10 | N#Cc1nn(C(F)F)cc1-c1cc(NC(=O)c2cc(F)cc(C(F)(F)F)c2)c2c(c1)C(=O)N[C@@H]2c1cc(F)ccc1Cl [Compound I-1889] |  |
| 10 to 100 | O=C1NC(c2cc(F)ccc2Cl)c2c(NC(=O)c3ccnc4ccc(Cl)cc34)cc(Br)cc21 (stereo not drawn) [Compound I-606] |  |
| 1 to 10 | Cc1ccccc1C1NC(=O)c2c(C#N)ncc(NC(=O)c3cc(F)cc(C(F)(F)F)c3)c21 (stereo not drawn) [Compound I-236] |  |
| ≤ 0.1 | Cc1c(-c2cc(NC(=O)c3cc(F)cc(C(F)(F)F)c3)c3c(c2)C(=O)N[C@H]3c2cc(F)ccc2Cl)ccc2ncnn12 [Compound I-1876] |  |
| 1 to 10 | O=C1Cc2cc(NC(=O)c3cc(F)cc(C(F)(F)F)c3)ccc2C(c2ccccc2Cl)N1 (stereo not drawn) [Compound I-1177] |  |
| 1 to 10 | O=C(Nc1cccc2c1C(c1cccc(F)c1)NC2=O)c1cc(F)cc(C(F)(F)F)c1 (stereo not drawn) [Compound I-390] |  |
| 10 to 100 | O=C1NC(c2cc(F)ccc2Cl)c2c(NC3CCS(=O)(=O)CC3)cc(-c3ccc4ncnn4c3)cc21 (stereo not drawn) [Compound I-2010] |  |
| ≤ 0.1 | Nc1cn2cc(-c3cc(NC(=O)c4cc(F)cc(C(F)(F)F)c4)c4c(c3)C(=O)NC4c3cc(F)ccc3Cl)ccc2n1 (stereo not drawn) [Compound I-1411] |  |
